Data reported in ChEMBL document CHEMBL2113921, “Open Source Malaria Deposition 1. http://malaria.ourexperiment.org” (2013).
In brackets after ≈: the same amount, converted by molar mass.

Key:
Plasmodium falciparum [1] = assay: OSM: Inhibition of Plasmodium falciparum 3D7 growth. IC50 values determined from 21 point dose response curves. Avery Group Griffith.; type: functional, organism-based
Plasmodium falciparum [2] = assay: OSM: Inhibition of Plasmodium falciparum 3D7 growth using a SYBR green I fluorescence based assay. Dose response curves were generated comprising of 8 points using a 2-fold serial dilution for the maximum final concentration of 1000 nM. Ralph Group, Bio21.; type: functional, organism-based
Plasmodium falciparum [3] = assay: OSM: Inhibition of Plasmodium falciparum 3D7 growth using a SYBR green I fluorescence based assay. GSK Tres Cantos.; type: functional, organism-based
[4] = OSM: HEK293 cytotoxicity assay. Duplicate point single experiment at 120 uM. Avery Group, Griffith.; type: toxicity, cell-based; details: human, HEK293 cells; read-out: Inhibition
[5] = OSM: Kinetic solubility pH 6.5 isotonic phosphate buffer.; type: ADME
[6] = OSM: Microsomal stability: 0.5 uM substrate, 0.4 mg/mL protein, NADPH cofactor). Analysed by LC/MS. In vitro CLint (uL/min/mg protein).; type: ADME, Microsome; details: human, microsomes
[7] = OSM: Microsomal stability: 0.5 uM substrate, 0.4 mg/mL protein, NADPH cofactor. Analysed by LC/MS. Degradation half life (min).; type: ADME, Microsome; details: human, microsomes
[8] = OSM: Microsomal stability: 0.5 uM substrate, 0.4 mg/mL protein, NADPH cofactor. Analysed by LC/MS. Degradation rate classification.; type: ADME, Microsome; details: human, microsomes
Plasmodium falciparum K1 [9] = assay: OSM: Inhibition of Plasmodium falciparum K1 growth. IC50 values determined from 21 point dose response curves. Avery Group Griffith.; type: functional, organism-based
Plasmodium falciparum [10] = assay: OSM: Late stage gametocytes. IC50 values determined from 21 point dose response curves. Avery Group Griffith.; type: functional, organism-based; details: Pfs16-GFP transgenic NF54
Plasmodium falciparum K1 [11] = assay: OSM: Percent inhibition of Plasmodium falciparum K1 growth at 120 uM. Avery Group Griffith.; type: functional
Plasmodium falciparum [12] = assay: OSM: Percent inhibition of Plasmodium falciparum 3D7 growth at 120 uM. Avery Group Griffith.; type: functional

CC(=O)N(C1=NC(=O)/C(=C/c2cc(C)n(-c3ccccc3)c2C)S1)c1ccccc1
IC50 (Plasmodium falciparum [1]): 63 nM
IC50 (Plasmodium falciparum [2]): 28 nM
IC50 (Plasmodium falciparum [3]): 85 nM

Cc1cc(/C=C2\S/C(=N\c3ccccc3)NC2=O)c(C)n1-c1ccc(F)cc1
IC50 (Plasmodium falciparum [1]): 176 nM
cytotoxicity at 120 µM [4]: 25%
solubility kinetic [5]: 1 µg/mL (≈ 2.55 µM)
microsomal CLint at 0.5 µM [6]: 15 µL/min/mg
half-life at 0.5 µM [7]: 1.53 h
Relative metabolic rate [8]: Moderate
IC50 (Plasmodium falciparum K1 [9]): 361 nM

CNC(=O)COC(=O)c1cc(C)n(-c2ccc(F)cc2)c1C
IC50 (Plasmodium falciparum [1]): 9400 nM

Cc1c(-c2nc(C(=O)O)co2)cnn1-c1ccc(F)cc1
IC50 (Plasmodium falciparum [1]): > 40000 nM

Cc1cc(CNCC(N)=O)c(C)n1-c1ccc(F)cc1
IC50 (Plasmodium falciparum [1]): > 40000 nM

COc1cc(C)c2c(Oc3cccc(C(F)(F)F)c3)c(OC)cc(NC(C)CCCN)c2n1 (configuration not stated) [TAFENOQUINE]
IC50 (Plasmodium falciparum [10]): 2800 nM

Cc1cc(/C=C2\S/C(=N\c3ccccc3)N(CC#N)C2=O)c(C)n1-c1ccc(C(F)(F)F)cc1
IC50 (Plasmodium falciparum [1]): 3120 nM
IC50 (Plasmodium falciparum [2]): > 1000 nM
IC50 (Plasmodium falciparum [3]): > 5000 nM

NS(=O)(=O)c1cccc(CNc2ncnc3ccsc23)c1
IC50 (Plasmodium falciparum [1]): > 40000 nM

Cc1cc(-c2nc(C(=O)O)co2)c(C)n1-c1ccc(F)cc1
IC50 (Plasmodium falciparum [1]): > 40000 nM

CCOC(=O)c1cc(C)n(-c2ccc(C(F)(F)F)cc2)c1C
inhibition at 120 µM (Plasmodium falciparum K1 [11]): 20%
cytotoxicity at 120 µM [4]: 75%
inhibition at 120 µM (Plasmodium falciparum [12]): 85%

O=C1C(O)=C([C@H]2CC[C@H](c3ccc(Cl)cc3)CC2)C(=O)c2ccccc21 [ATOVAQUONE]
IC50 (Plasmodium falciparum [3]): 1 nM

CCOC(=O)c1cc(C)n(-c2ccc(C)cc2)c1C
inhibition at 120 µM (Plasmodium falciparum K1 [11]): 50%
cytotoxicity at 120 µM [4]: 0%
inhibition at 120 µM (Plasmodium falciparum [12]): 85%

CCOc1ccc(Nc2ncnc3ccsc23)cc1S(=O)(=O)N(C)C
IC50 (Plasmodium falciparum [1]): > 40000 nM

Cc1cc(C(=O)N(C)C)c(C)n1-c1ccc(F)cc1
IC50 (Plasmodium falciparum [1]): > 40000 nM

Nc1ncnc2ccsc12
IC50 (Plasmodium falciparum [1]): > 40000 nM

CC(=O)N(C1=NC(=O)/C(=C/c2cc(C)n(-c3ccc(C)cc3)c2C)S1)c1ccccc1
IC50 (Plasmodium falciparum [1]): 326 nM
IC50 (Plasmodium falciparum [2]): 156 nM
IC50 (Plasmodium falciparum [3]): 25 nM

Cc1cc(/C=C2\S/C(=N\c3ccccc3)N(C3CCCC3)C2=O)c(C)n1-c1ccc(C(F)(F)F)cc1
IC50 (Plasmodium falciparum [1]): 34 nM
IC50 (Plasmodium falciparum [2]): 520 nM
IC50 (Plasmodium falciparum [3]): 276 nM
solubility kinetic [5]: 5 µg/mL (≈ 9.81 µM)
microsomal CLint at 0.5 µM [6]: 14 µL/min/mg
half-life at 0.5 µM [7]: 2.02 h
Relative metabolic rate [8]: Moderate

Cc1cc(CN(C)CC(N)=O)c(C)n1-c1ccc(F)cc1
IC50 (Plasmodium falciparum [1]): > 40000 nM

Cc1cc(C(=O)N2CCNC(=O)C2)c(C)n1-c1ccccc1
IC50 (Plasmodium falciparum [1]): > 40000 nM

COc1cccc(NC(=O)CSc2nnc(-c3cc(C)n(-c4ccccc4)c3C)o2)c1
IC50 (Plasmodium falciparum [1]): > 40000 nM

Cc1c(C(=O)OCC(N)=O)cnn1-c1ccccc1
IC50 (Plasmodium falciparum [1]): > 40000 nM

CCOC(=O)C(C)OC(=O)c1cc(C)n(-c2ccc(F)cc2)c1C (configuration not stated)
IC50 (Plasmodium falciparum [1]): > 40000 nM

Cc1cc(/C=C2\S/C(=N\c3ccccc3)NC2=O)c(C)n1-c1ccc(C(F)(F)F)cc1
IC50 (Plasmodium falciparum [1]): 2 nM
IC50 (Plasmodium falciparum [2]): 205 nM
IC50 (Plasmodium falciparum [3]): 29 nM
solubility kinetic [5]: 3 µg/mL (≈ 6.8 µM)
microsomal CLint at 0.5 µM [6]: < 7 µL/min/mg
half-life at 0.5 µM [7]: > 4.17 h
Relative metabolic rate [8]: Low
IC50 (Plasmodium falciparum [10]): 4 nM

CCOC(=O)c1cc(C)n(-c2ccc(F)cc2)c1C
IC50 (Plasmodium falciparum [1]): 12000 nM
IC50 (Plasmodium falciparum [3]): > 5000 nM
cytotoxicity at 120 µM [4]: 25%
IC50 (Plasmodium falciparum K1 [9]): 12400 nM

CCOC(=O)c1ccc(-n2c(C)cc(/C=C3\S/C(=N/c4ccccc4)NC3=O)c2C)cc1
IC50 (Plasmodium falciparum [1]): 169 nM
IC50 (Plasmodium falciparum [2]): 339 nM
IC50 (Plasmodium falciparum [3]): 267 nM

Cc1cc(C=O)c(C)n1-c1ccccc1
inhibition at 120 µM (Plasmodium falciparum K1 [11]): 80%
cytotoxicity at 120 µM [4]: 25%
inhibition at 120 µM (Plasmodium falciparum [12]): 55%

Cc1cc(CNC2CCN(Cc3ccccc3)CC2)c(C)n1-c1ccc(F)cc1
IC50 (Plasmodium falciparum [1]): 4800 nM

CCNC(=O)C1CC(N)CN1Cc1cc(C)n(-c2ccccc2Cl)c1C (configuration not stated)
IC50 (Plasmodium falciparum [1]): 24700 nM

COC(=O)c1sccc1NC=O
IC50 (Plasmodium falciparum [1]): > 40000 nM

NS(=O)(=O)c1ccc(CNc2nc(-c3ccsc3)nc3ccccc23)cc1
IC50 (Plasmodium falciparum [1]): > 40000 nM

COc1ccc2nc3cc(Cl)ccc3c(Nc3cc(CN4CCCC4)c(O)c(CN4CCCC4)c3)c2n1 [PYRONARIDINE]
IC50 (Plasmodium falciparum [1]): 3.2 nM
IC50 (Plasmodium falciparum [10]): 2960 nM

Cc1cc(C(=O)O)c(C)n1-c1ccccc1
inhibition at 120 µM (Plasmodium falciparum K1 [11]): 50%
cytotoxicity at 120 µM [4]: 0%
inhibition at 120 µM (Plasmodium falciparum [12]): 70%

CN(C)C(=O)n1cnc(S(=O)(=O)N(C)c2ccccc2)n1
IC50 (Plasmodium falciparum [1]): 333 nM

Cc1cc(C(=O)OC(C)(C)C(N)=O)c(C)n1-c1ccc(F)cc1
IC50 (Plasmodium falciparum [1]): > 40000 nM

COC(=O)c1coc(-c2cnn(-c3ccc(F)cc3)c2C)n1
IC50 (Plasmodium falciparum [1]): > 40000 nM

Cc1cc(C(=O)NCC(=O)N(C)C)c(C)n1-c1ccccc1
IC50 (Plasmodium falciparum [1]): > 40000 nM

Cc1cc(C(=O)N(C(=O)NC2CCCCC2)C2CCCCC2)c(C)n1-c1ccc(F)cc1
IC50 (Plasmodium falciparum [1]): 7800 nM

Cc1cc(C(=O)N(C)CC(N)=O)c(C)n1-c1ccc(F)cc1
IC50 (Plasmodium falciparum [1]): > 40000 nM
